Values joined by “and” are separate entries in the source; they are usually repeats but may differ in a detail not shown here. Identical values can stand only once.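 Protocol summary: plate cells (96-well), add compound at 5 concentrations, incubate 48 h, interpolate endpoints linearly. At the GI50, growth is halved. The concentration for full growth arrest is given as TGI.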
Legend:
Experiment in all cases: NCI tumour cell line growth inhibition, 48 h
HCT-15 colon = system: HCT-15 colon
DMS 273 small cell lung = system: DMS 273 small cell lung
SF-268 CNS = system: SF-268 CNS
NCI/ADR-RES ovarian = system: NCI/ADR-RES ovarian
DMS 114 small cell lung = system: DMS 114 small cell lung
K-562 leukemia = system: K-562 leukemia
IGROV1 ovarian = system: IGROV1 ovarian
CAKI-1 renal = system: CAKI-1 renal
SR leukemia = system: SR leukemia
MDA-MB-231 breast = system: MDA-MB-231 breast

| Compound | TGI (HCT-15 colon) | TGI (DMS 273 small cell lung) | TGI (SF-268 CNS) | TGI (NCI/ADR-RES ovarian) [µM] | TGI (DMS 114 small cell lung) | TGI (K-562 leukemia) | TGI (IGROV1 ovarian) | GI50 (DMS 273 small cell lung) [µM] | GI50 (CAKI-1 renal) [µM] | TGI (CAKI-1 renal) | GI50 (SF-268 CNS) [µM] | GI50 (DMS 114 small cell lung) [µM] | GI50 (K-562 leukemia) [µM] | GI50 (IGROV1 ovarian) [µM] | TGI (SR leukemia) [µM] | TGI (MDA-MB-231 breast) [µM] |
| --- | --- | --- | --- | --- | --- | --- | --- | --- | --- | --- | --- | --- | --- | --- | --- | --- |
| CSCC[C@@H](NC(=O)[C@H](CC(C)C)NC(=O)C(Cc1cnc[nH]1)NC(=O)CNC(=O)[C@@H](NC(=O)[C@H](C)NC(=O)[C@H](Cc1c[nH]c2ccccc12)NC(=O)[C@H](CCC(N)=O)NC(=O)[C@@H](N)CC(N)=O)C(C)C)C(N)=O (stereo partly drawn) | > 100 µM | > 100 µM | > 100 µM | > 100 | > 100 µM | > 100 µM | > 100 µM | – | – | – | – | – | – | – | – | – |
| Cc1c2ccnc(C(N)=O)c2c(C)c2c1[nH]c1ccccc12 | 41.1 µM and > 100 µM | 23.7 µM and 16.7 µM | 44.6 µM and 27.8 µM | 34 | 47.3 µM and 47.6 µM | 48.2 µM and > 100 µM | 50 µM and 27.4 µM | 3.5 | 4.82 | 9.58 µM and 26.4 µM | 6.19 | 6.72 | 3.9 | 7.49 | – | – |
| Cc1c(N2CCOCC2)nc2ccc(Cl)cc2c1-c1ccccc1 | > 100 µM | > 100 µM | > 100 µM | – | > 100 µM | > 100 µM | > 100 µM | – | – | > 100 µM | – | – | – | – | > 100 | – |
| COc1cc2ccc3c4cc(OC)c(OC)cc4c[n+](C)c3c2cc1O | > 100 µM | > 100 µM | 7.23 µM | – | > 82.9 µM | > 100 µM | > 100 µM | – | – | > 100 µM | – | – | – | – | – | – |
| Cc1ccccc1-c1nc2c(N)nc(N)nc2nc1N | > 100 µM | – | > 100 µM | > 100 | – | > 100 µM | > 100 µM | – | – | > 100 µM | – | – | – | – | > 100 | > 100 |
| O=C(NCc1ccccc1)c1cc2ccccc2oc1=Nc1cccc(C(F)(F)F)c1 | > 100 µM | – | > 100 µM | > 100 | – | > 100 µM | > 100 µM | – | – | > 100 µM | – | – | – | – | 66.1 | > 100 |
| O=c1oc2ccc3ccccc3c2cc1-c1cn2ccsc2n1 | 35.9 µM | – | 56.3 µM | 96.2 | – | 82.4 µM | 23.2 µM | – | – | 59 µM | – | – | – | – | 46.9 | 57.4 |
| O=C(ON=C1c2ccccc2C(Br)C(Br)c2ccccc21)c1ccccc1 (stereo not drawn) | 42.5 µM | – | 42.3 µM | 51.4 | – | 8.98 µM | 6.27 µM | – | – | 23.7 µM | – | – | – | – | 9.12 | 33.5 |
| Cc1ccc(-c2cc(-c3ccco3)c(C#N)c(=S)[nH]2)cc1 | > 100 µM | – | > 100 µM | > 100 | – | > 100 µM | > 100 µM | – | – | > 100 µM | – | – | – | – | > 100 | > 100 |
| OCc1cn(Cc2ccccc2)c2ccccc12 | 31.4 µM | – | 40.2 µM | 42.4 | – | > 100 µM | 2.09 µM | – | – | 1.64 µM | – | – | – | – | > 100 | 54.5 |
| Cn1nc(-c2ccc(S(=O)(=O)/N=C(\NN)Nc3ccc(Cl)cc3)s2)cc1C(F)(F)F | 47.5 µM | – | 32.6 µM | 50.7 | – | 35.4 µM | 36 µM | – | – | 35.1 µM | – | – | – | – | 41.7 | 32.2 |
| CN(O)C(=O)/C=C/c1ccc(OCc2cccc(Cl)c2)cc1 | 29.1 µM | – | > 100 µM | 46.7 | – | > 100 µM | 60.8 µM | – | – | 62.6 µM | – | – | – | – | 38.4 | > 100 |
| CC1=CC2C3(C)C(C)(C(C)=CP3(=O)c3c(C(C)C)cc(C(C)C)cc3C(C)C)C1P2(=O)c1c(C(C)C)cc(C(C)C)cc1C(C)C (stereo not drawn) | 5.87 µM | – | 12.1 µM | 9.89 | – | 12.8 µM | 6.1 µM | – | – | 15.9 µM | – | – | – | – | 3.92 | 3.87 |
| COC(=O)CC(=O)OSc1ccccc1 | – | 41 µM | – | – | 25.6 µM | > 100 µM | 20.2 µM | – | – | – | – | – | – | – | 42 | – |
| COC(=O)CNC(=O)C(CSC(=O)OCC1c2ccccc2-c2ccccc21)NC(=O)CCC(NC(=O)OCC1c2ccccc2-c2ccccc21)C(=O)OC (stereo not drawn) | > 100 µM | – | 51.9 µM | > 100 | – | 82.7 µM | 31.6 µM | – | – | 19.9 µM | – | – | – | – | 37.5 | 30.2 |
| CN(C)CCN(c1ccccn1)c1ccccn1 | > 100 µM | – | > 100 µM | > 100 | – | > 100 µM | > 100 µM | – | – | > 100 µM | – | – | – | – | > 100 | > 100 |
| CC(=O)NNc1nc(C)c(C(=O)NNC(=O)C(=O)Nc2ccc([N+](=O)[O-])cc2[N+](=O)[O-])s1 | > 100 µM | > 100 µM | > 100 µM | – | > 100 µM | > 100 µM | > 100 µM | – | – | > 100 µM | – | – | – | – | > 100 | – |
| Cn1c2ccccc2n2c3ncccc3c(=O)c(C#N)c12 | > 53.8 µM | – | > 100 µM | > 100 | – | > 100 µM | > 100 µM | – | – | > 77.3 µM | – | – | – | – | > 100 | 57.1 |
| CO/N=C1\CC(NC(=O)C(F)(F)F)c2ccsc21 (stereo not drawn) | > 100 µM | – | > 100 µM | > 100 | – | > 100 µM | > 100 µM | – | – | > 100 µM | – | – | – | – | > 100 | > 100 |
| O=CC(I)=C(c1ccccc1)c1ccccc1 | 28.4 µM | – | > 56.8 µM | 45.1 | – | > 71 µM | 37.5 µM | – | – | 30.4 µM | – | – | – | – | 27.9 | 29 |
| Cc1c2cccc-2c2cc(O)c3ccccc3c2n1-c1ccc(N(C)C)cc1 | 20 µM | – | 32.8 µM | 30.7 | – | 26.8 µM | 14.5 µM | – | – | 31.7 µM | – | – | – | – | 26.4 | 9.75 |
| N#Cc1c(-c2ccc([N+](=O)[O-])cc2)cc(-c2ccc(Nc3ccnc4cc(Cl)ccc34)cc2)[nH]c1=O | > 100 µM | – | > 100 µM | > 100 | – | > 100 µM | > 100 µM | – | – | > 100 µM | – | – | – | – | > 100 | > 100 |
| COc1ccc2c(c1)c1c(n2CCN2CCCCC2)-c2cccc(OC)c2CC1 | 70.1 µM | – | 48.8 µM | 41.5 | – | 31.6 µM | 29.8 µM | – | – | 37.7 µM | – | – | – | – | 44.7 | 36.6 |
| COc1ccc(N=Nc2c(-c3c(OC)cc4occc4c3OC)[nH]c(=O)c(C#N)c2C)cc1 | > 100 µM | – | > 100 µM | > 100 | – | > 100 µM | > 100 µM | – | – | > 100 µM | – | – | – | – | > 100 | > 100 |

— PubChem BioAssay (NCI)
